Molecules are shown by their SMILES.

`O=c1ccc2nc3ccc(F)cc3sc-2c1Cl`: the melting point (as a rule, the temperature, or range, at which the solid turns liquid) was 250 to 255 °C.
The molecule `COC(=O)c1ccc2c3cccc4cccc(c5ccc(C(=O)N(C)c6ccc(C(C)(C)C)cc6)c1c25)c43` displayed a melting point of 272 °C.
Molecule `O=C(Cc1ccccc1)N[C@@H]1C(=O)N[C@@H]1SCC(=O)c1ccccc1` showed a melting point of 160 to 162 °C.
Molecule `CCOc1cc(C(C)(C)C)ccc1-c1nc(-c2c(F)cccc2Cl)nn1C` registered a melting point of 108 to 111 °C.
The value for `c1cncc(-c2ccc3c(c2)OCO3)c1` was 92 to 92.5 °C; that for `c1ccc(OCCSCc2nnc(-c3ccc(OCCCN4CCCCC4)cc3)o2)cc1` was 65 °C; that for `COc1ccccc1-n1cnnc1C(F)(F)F` was 62 °C.
For the molecule `C[C@H](C#Cc1ccc(Cc2ccccc2)s1)N(O)C(N)=O`, the melting point is 140 to 142 °C.
`CCOC(=O)Cc1c2ccccc2n2c(-c3cccs3)nccc12` registered a melting point of 94 to 95 °C.
With `CC(CCCO)C1CC=C2C3=C(CCC21C)C1(C)CCC(O)C(C)(C)C1CC3` (centres undefined), the melting point lay in the range of 203 to 208 °C.
As to `C#CC1(O)CCC2C3C(C)CC4=CC(=O)CCC4C3CCC21CC` (centres undefined), the melting point lay within 182 to 184 °C.
The value for `CCC1=NNC(C)=C(C(=O)OCCOC(C)C)C1c1cccc([N+](=O)[O-])c1` (centres undefined) was 84 °C; that for `Cc1noc(NS(=O)(=O)c2cccc(Cl)c2C)c1Br` was 185 to 187 °C; that for `COC(=O)COc1ccc(C(=O)C(C)N2CCN(c3ccncc3)CC2)cc1` (racemic) was 81 to 83 °C.
The molecule `CN1CCN(Cc2cccc(-c3cc4c(Nc5ccc6[nH]ccc6c5)c(C#N)cnc4s3)c2)CC1` gave a melting point of 128 to 130 °C.
Molecule `COC(=O)c1cc(C(C)(C)C)cc(C(C)(C)C)c1` registered a melting point of 52 to 52.5 °C.
Molecule `OCc1c(C(F)(F)F)nn(-c2ccccc2)c1OC(F)F` gave a melting point of 57 to 59 °C.
Take `Cc1c(CN(O)Cc2ccccc2)c(C)c(CN(O)Cc2ccccc2)c(C)c1CN(O)Cc1ccccc1`: the melting point lay within 193 to 195 °C.
Molecule `ClC1c2ccccc2CSc2ccccc21` (centres undefined) registered a melting point of 79 to 82 °C.
`CCOC(=O)c1cc2c(OC)ccnc2[nH]1` displayed a melting point of 195 to 197 °C.
Molecule `Cc1c(Oc2ncc(C(F)(F)F)cc2Cl)nn(C(=O)NC(C)C)c1C` yielded a melting point of 78 to 80 °C.
Turning to `Cc1ccc(Cl)cc1NC(=S)Nc1nc(C)c(C)s1`, the melting point lay in the range of 188 to 189 °C.
With `N#CCc1nc(-c2ccc(Cl)cc2)sc1-c1ccccc1`, the melting point fell in the range of 118 to 120 °C.
As to `CC1C(=C[N+](=O)[O-])Nc2ccc(Cl)cc2C(c2ccccc2F)=[N+]1[O-]` (centres undefined), the melting point lay within 198 to 200 °C.
Consider `CCCN1CCCC2(Cc3ccccc3NC2=O)C1=O` (centres undefined), for which the melting point was in the range of 151 to 154 °C.
For `NCCc1c2n(c3ccccc13)C(=O)CCC2`, the melting point lay in the range of 110 to 111 °C.
The molecule `COc1cc(C)cc(-c2nn(CC#N)cc2-c2ccnc(S(C)(=O)=O)n2)c1` had a melting point of 238 °C.
The value for `CC(=O)NN(C(C)=O)[C@@H]1c2cc(C#N)ccc2OC(C)(C)[C@H]1O` (relative stereo) was 206 to 207 °C; that for `CCOC(=O)C1=C(C)NC(C)=C(C(=O)OCCN2CCN(C(c3ccccc3)c3ccccc3)CC2)C1c1ccc(Cl)cc1` (centres undefined) was 75 to 79 °C.
For `CCCCCCCC(O)CNCCCCCCNCC(O)CCCCCCC` (centres undefined), the melting point was in the range of 122 to 129 °C.
Molecule `CC1CC2C3CCC4=CC(=O)C=CC4(C)C3(F)C(O)CC2(C)C1(O)C(=O)COC(=O)OCc1ccccc1[N+](=O)[O-]` (centres undefined) displayed a melting point of 203 to 204 °C.
The molecule `O=c1nc(-c2ccccc2)c2cc([N+](=O)[O-])ccc2n1CC1CCCO1` (centres undefined) came in with a melting point of 150 to 152 °C.
Molecule `COc1ccc(C2CCCCC2)cc1-c1csc(NC(=O)N2CCN(C[C@@H]3CCCN(CC#N)C3)CC2)n1` registered a melting point of 106 °C.
`COc1ccc(-c2cccc(C(=O)O)c2)c2cc(Cc3cccc(C(F)(F)F)c3)oc12` showed a melting point of 118 to 119 °C.
